# Source: ChEMBL document CHEMBL6182863, “Discovery of novel rigid STING PROTAC degraders as potential therapeutics for acute kidney injury” (Eur J Med Chem, 2025)
# The source made the active and inactive calls. No cut-off for these calls is given here.
# Tests used:
# [1] = biological target: Transcription factor p65 (Homo sapiens) (UniProt Q04206); assay: Inhibition of NF-kappaB P65 nuclear translocation in human HK-2 cells at 0.25 to 5 uM by DAPI staining based fluorescence microscopic analysis; type: cell-based; settings: dose 0.25-5 µM
# Sequence of Transcription factor p65 (Homo sapiens) (Q04206 whole entry): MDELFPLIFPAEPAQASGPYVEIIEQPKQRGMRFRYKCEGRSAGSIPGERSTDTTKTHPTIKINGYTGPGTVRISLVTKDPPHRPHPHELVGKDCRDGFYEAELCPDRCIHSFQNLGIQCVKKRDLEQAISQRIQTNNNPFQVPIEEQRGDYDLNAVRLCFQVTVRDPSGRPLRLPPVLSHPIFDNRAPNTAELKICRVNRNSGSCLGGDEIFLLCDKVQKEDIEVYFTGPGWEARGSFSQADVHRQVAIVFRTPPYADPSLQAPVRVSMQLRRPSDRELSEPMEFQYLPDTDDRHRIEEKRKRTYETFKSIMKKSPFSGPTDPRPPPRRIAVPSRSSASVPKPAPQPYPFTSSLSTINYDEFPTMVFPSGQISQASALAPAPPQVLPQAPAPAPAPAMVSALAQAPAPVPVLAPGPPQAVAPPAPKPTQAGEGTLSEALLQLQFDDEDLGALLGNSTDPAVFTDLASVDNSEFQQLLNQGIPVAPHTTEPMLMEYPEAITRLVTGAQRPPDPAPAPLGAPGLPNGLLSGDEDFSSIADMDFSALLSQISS
# [2] = biological target: T1, Protein cereblon/Stimulator of interferon genes protein (Homo sapiens, UniProt Q96SW2+Q86WV6); assay: PROTAC activity at CRBN/STING in human THP-1 cells assessed as induction of STING degradation measured after 24 hrs by Western blotting analysis; type: cell-based
# Target sequence in this assay (Q96SW2 whole entry): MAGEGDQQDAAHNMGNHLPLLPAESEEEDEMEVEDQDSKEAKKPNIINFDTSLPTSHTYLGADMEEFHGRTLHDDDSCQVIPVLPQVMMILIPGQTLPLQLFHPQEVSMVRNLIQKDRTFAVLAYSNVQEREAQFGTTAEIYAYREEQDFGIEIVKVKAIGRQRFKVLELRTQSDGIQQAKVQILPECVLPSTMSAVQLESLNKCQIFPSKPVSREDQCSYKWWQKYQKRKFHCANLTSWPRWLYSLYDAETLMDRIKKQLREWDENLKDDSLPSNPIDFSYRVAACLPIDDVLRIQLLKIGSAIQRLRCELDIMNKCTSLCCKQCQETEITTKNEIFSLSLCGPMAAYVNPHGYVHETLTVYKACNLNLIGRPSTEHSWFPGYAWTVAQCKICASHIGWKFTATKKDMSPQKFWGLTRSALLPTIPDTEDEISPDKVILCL
# Target sequence in this assay (Q86WV6 whole entry): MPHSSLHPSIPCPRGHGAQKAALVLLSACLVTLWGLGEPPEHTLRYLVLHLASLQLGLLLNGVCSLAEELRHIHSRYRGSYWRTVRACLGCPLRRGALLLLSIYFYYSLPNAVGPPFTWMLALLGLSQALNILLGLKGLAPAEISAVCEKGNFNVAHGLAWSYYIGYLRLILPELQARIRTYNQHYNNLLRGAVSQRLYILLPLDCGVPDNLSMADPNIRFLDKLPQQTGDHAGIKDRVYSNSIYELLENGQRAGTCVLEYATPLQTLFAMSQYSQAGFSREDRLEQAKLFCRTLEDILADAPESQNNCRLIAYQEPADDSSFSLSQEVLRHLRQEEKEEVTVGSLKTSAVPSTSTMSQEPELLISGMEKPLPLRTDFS
# [3] = biological target: T1, Protein cereblon/Stimulator of interferon genes protein; assay: PROTAC activity at CRBN/STING in human THP-1 cells assessed as induction of STING degradation at 5 uM incubated for 24 hrs in presence of bafilomycin by Western blotting analysis; type: cell-based
# Target sequence in this assay (Q86WV6 whole entry, looked up): as the sequence (Q86WV6 whole entry) above
# Target sequence in this assay (Q96SW2 whole entry, looked up): as the sequence (Q96SW2 whole entry) above
# [4] = test system: HK-2; assay: Inhibition of STING downstream signal pathway in cisplatin stimulated human HK-2 cells assessed as reduction in P-P65 level by […] analysis; type: cell-based; settings: dose 1.25-5 µM
# [5] = test system: THP-1; assay: PROTAC activity at CRBN/STAT3 in human THP-1 cells assessed as induction of STAT3 degradation at 1.25 to 20 uM by Western blotting analysis; type: cell-based; settings: dose 1.25-20 µM
# [6] = test system: THP-1; assay: PROTAC activity at CRBN/LKB1 in human THP-1 cells assessed as induction of LKB1 degradation at 1.25 to 20 uM by Western blotting analysis; type: cell-based; settings: dose 1.25-20 µM
# [7] = test system: THP-1; assay: PROTAC activity at CRBN/AKT in human THP-1 cells assessed as induction of AKT degradation at 1.25 to 20 uM measured after 24 hrs by Western blotting analysis; type: cell-based; settings: dose 1.25-20 µM
# [8] = test system: HEK-293T; assay: Cytotoxicity against human HEK293T cells assessed as reduction in cell viability at 0.5 to 120 uM incubated for 24 hrs by MTT assay; type: toxicity, cell-based; settings: dose 0.5-120 µM
# [9] = test system: H9c2; assay: Cytotoxicity against rat H9c2 cells assessed as reduction in cell viability at 0.5 to 120 uM incubated for 24 hrs by MTT assay; type: toxicity, cell-based; settings: h9c2, 24 h, dose 0.5-120 µM
# [10] = test system: BV-2; assay: Cytotoxicity against mouse BV-2 cells assessed as reduction in cell viability at > 60 uM incubated for 24 hrs by MTT assay; type: toxicity, cell-based; settings: bv-2, 24 h
# [11] = Cytotoxicity against rat BRL-3A cells assessed as reduction in cell viability at 0.5 to 120 uM incubated for 24 hrs by MTT assay; type: toxicity, cell-based; settings: dose 0.5-120 µM
# [12] = Acute toxicity in C57BL/6J mouse assessed as change in body weight at 43 mg/kg; type: organism-based; settings: in vivo
# [13] = Acute toxicity in C57BL/6J mouse assessed as change in body weight at 179 mg/kg; type: organism-based; settings: in vivo
# [14] = Acute toxicity in C57BL/6J mouse; settings: in vivo, dose 30 mg/kg
# [15] = Water solubility of the compound at 2 mg by HPLC analysis; type: physicochemical
# [16] = Metabolic stability in human liver microsomes assessed as half life; type: ADME, Microsome
# [17] = Metabolic stability in human liver microsomes assessed as metabolic factor relative to control; type: ADME, Microsome
# [18] = AUC (0 to infinity) in male Sprague-Dawley rat at 2 mg/kg, iv measured after 12 hrs by LC-MS/MS analysis; type: ADME, organism-based; settings: in vivo
# [19] = Apparent volume of distribution in male Sprague-Dawley rat at 2 mg/kg, iv measured after 12 hrs by LC-MS/MS analysis; type: ADME, organism-based; settings: in vivo, read-out: Vz
# [20] = Cmax in male Sprague-Dawley rat at 2 mg/kg, iv measured after 12 hrs by LC-MS/MS analysis; type: ADME, organism-based; settings: in vivo
# [21] = Toxicity in cisplatin-induced acute kidney injury C57BL/6J mouse model assessed as morphological abnormality in liver at 25 to 50 mg/kg, ip by H and E staining based analysis; type: organism-based; settings: in vivo, dose 25-50 mg/kg
# [22] = Toxicity in cisplatin-induced acute kidney injury C57BL/6J mouse model assessed as morphological abnormality in heart at 25 to 50 mg/kg, ip by H and E staining based analysis; type: organism-based; settings: in vivo, dose 25-50 mg/kg
# [23] = test system: Mus musculus; assay: Renoprotective activity against cisplatin-induced C57BL/6J mouse acute kidney injury model assessed as survival rate at 25 mg/kg, ip measured after 72 hrs relative to control; type: functional
# [24] = test system: Mus musculus; assay: Renoprotective activity against cisplatin-induced C57BL/6J mouse acute kidney injury model assessed as survival rate at 50 mg/kg, ip measured after 72 hrs relative to control; type: functional
# [25] = test system: Mus musculus; assay: Renoprotective activity against cisplatin-induced C57BL/6J mouse acute kidney injury model assessed as decrease in disease activity index score at 25 to 50 mg/kg, ip measured after 72 hrs; type: functional, organism-based; settings: dose 25-50 mg/kg
# [26] = test system: Mus musculus; assay: Renoprotective activity against cisplatin-induced C57BL/6J mouse acute kidney injury model assessed as reduction in kidney weight at 25 to 50 mg/kg, ip measured after 72 hrs; type: functional, organism-based; settings: dose 25-50 mg/kg
# [27] = test system: Mus musculus; assay: Renoprotective activity against cisplatin-induced C57BL/6J mouse acute kidney injury model assessed as reduction in BUN level at 25 to 50 mg/kg, ip measured after 72 hrs; type: functional, organism-based; settings: dose 25-50 mg/kg
# [28] = test system: Mus musculus; assay: Renoprotective activity against cisplatin-induced C57BL/6J mouse acute kidney injury model assessed as reduction in creatinine level at 25 to 50 mg/kg, ip measured after 72 hrs; type: functional, organism-based; settings: dose 25-50 mg/kg
# [29] = test system: Mus musculus; assay: Renoprotective activity against cisplatin-induced C57BL/6J mouse acute kidney injury model assessed as decrease in body weight at 25 to 50 mg/kg, ip measured after 72 hrs; type: functional, organism-based; settings: dose 25-50 mg/kg
# [30] = test system: Mus musculus; assay: Renoprotective activity against cisplatin-induced C57BL/6J mouse acute kidney injury model assessed as decrease in fecal occult blood at 25 to 50 mg/kg, ip measured after 72 hrs; type: functional, organism-based; settings: dose 25-50 mg/kg
# [31] = biological target: T2, Protein cereblon/Stimulator of interferon genes protein (Mus musculus) (UniProt Q3TBT3+Q8C7D2); assay: In vivo inhibition of STING/TBK1/NF-kappaB signaling in C57BL/6J mouse assessed as decrease in STING protein level in kidney at 25 to 50 mg/kg, ip measured after 72 hrs by Western blotting analysis; type: functional, organism-based; settings: dose 25-50 mg/kg
# T2 sequence (Q3TBT3 whole entry, looked up): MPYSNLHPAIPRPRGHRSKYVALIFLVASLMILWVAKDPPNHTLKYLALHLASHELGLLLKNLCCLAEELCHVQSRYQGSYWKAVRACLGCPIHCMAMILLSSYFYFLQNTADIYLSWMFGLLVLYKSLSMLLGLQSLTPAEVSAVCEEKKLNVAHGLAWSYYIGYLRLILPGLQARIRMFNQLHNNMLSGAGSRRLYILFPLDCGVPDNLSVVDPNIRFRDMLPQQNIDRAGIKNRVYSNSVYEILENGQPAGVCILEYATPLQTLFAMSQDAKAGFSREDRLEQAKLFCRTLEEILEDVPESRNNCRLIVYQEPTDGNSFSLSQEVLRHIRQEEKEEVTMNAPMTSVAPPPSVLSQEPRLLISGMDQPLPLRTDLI
# T2 sequence (Q8C7D2 whole entry, looked up): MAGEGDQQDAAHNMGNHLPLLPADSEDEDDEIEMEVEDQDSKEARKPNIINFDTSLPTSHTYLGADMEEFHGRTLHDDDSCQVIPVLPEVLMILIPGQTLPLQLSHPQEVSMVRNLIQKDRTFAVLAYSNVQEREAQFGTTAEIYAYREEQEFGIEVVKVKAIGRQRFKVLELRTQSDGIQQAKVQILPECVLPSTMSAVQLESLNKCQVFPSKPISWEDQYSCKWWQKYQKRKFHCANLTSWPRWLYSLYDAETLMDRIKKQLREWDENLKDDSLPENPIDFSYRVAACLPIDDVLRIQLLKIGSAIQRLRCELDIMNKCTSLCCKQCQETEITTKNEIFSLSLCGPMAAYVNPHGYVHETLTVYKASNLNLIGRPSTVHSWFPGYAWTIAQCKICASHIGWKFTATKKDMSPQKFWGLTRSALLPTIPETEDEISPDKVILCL
# [32] = biological target: T2, Protein cereblon/Stimulator of interferon genes protein (Mus musculus); assay: In vivo inhibition of STING/TBK1/NF-kappaB signaling in C57BL/6J mouse assessed as decrease in P-TBK1 protein level in kidney at 25 to 50 mg/kg, ip measured after 72 hrs by Western blotting analysis; type: functional, organism-based; settings: dose 25-50 mg/kg
# [33] = biological target: T2, Protein cereblon/Stimulator of interferon genes protein (Mus musculus); assay: In vivo inhibition of STING/TBK1/NF-kappaB signaling in C57BL/6J mouse assessed as decrease in serum IFN-beta level at 25 to 50 mg/kg, ip measured after 72 hrs by ELISA; type: functional, organism-based; settings: dose 25-50 mg/kg
# [34] = biological target: T2, Protein cereblon/Stimulator of interferon genes protein (Mus musculus); assay: In vivo inhibition of STING/TBK1/NF-kappaB signaling in C57BL/6J mouse assessed as decrease in serum CXCL10 level at 25 to 50 mg/kg, ip measured after 72 hrs by ELISA; type: functional, organism-based; settings: dose 25-50 mg/kg
# [35] = biological target: T2, Protein cereblon/Stimulator of interferon genes protein (Mus musculus); assay: In vivo inhibition of STING/TBK1/NF-kappaB signaling in C57BL/6J mouse assessed as decrease in serum IL-6 level at 25 to 50 mg/kg, ip measured after 72 hrs by ELISA; type: functional, organism-based; settings: dose 25-50 mg/kg
# [36] = test system: Mus musculus; assay: Renoprotective activity against cisplatin-induced C57BL/6J mouse model assessed as reduction in renal injury administered intraperitoneally by H and E staining based analysis; type: functional, organism-based; settings: dose 25-50 mg/kg, route ip
smiles,measurement,setting,value
O=C(/C=C/C(=O)N1CCN(CC2CCN(c3cccc4c3C(=O)N(C3CCC(=O)NC3=O)C4=O)C2)CC1)Nc1ccc(NC(=O)c2ccc([N+](=O)[O-])o2)cc1 (stereo unspecified),inhibition,[1],Active
same,DC50,[2],0.62 µM
same,Activity,[3],Active
same,inhibition,[4],Dose-dependent-effect
same,Activity,[5],inactive
same,Activity,[6],inactive
same,Activity,[7],inactive
same,Activity,[8],Non-toxic
same,Activity,[9],Non-toxic
same,Activity,[10],Non-toxic
same,Activity,[11],Non-toxic
same,Activity,[12],24.2 g
same,Activity,[13],22.8 g
same,LD50,[14],> 179 mg/kg
same,solubility,[15],3.317 µg/mL
same,half-life,[16],20.1 min
same,Activity,[17],15.8%
same,AUC,[18],0.73 µg/ml.hr
same,Vd,[19],3.9 L/kg
same,Cmax,[20],2390 ng/mL
same,Activity,[21],Non-toxic
same,Activity,[22],Non-toxic
same,survival at 25 mg/kg,[23],78%
same,survival at 50 mg/kg,[24],100%
same,Activity_index,[25],Active
same,Activity,[26],Active
same,Activity,[27],Active
same,Activity,[28],Active
same,Activity,[29],Active
same,Activity,[30],Active
same,inhibition,[31],Active
same,inhibition,[32],Active
same,inhibition,[33],Active
same,inhibition,[34],Active
same,inhibition,[35],Active
same,Activity,[36],Dose-dependent-effect
